Test results taken from PubChem BioAssay (NCI).
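How tested: cells in 96-well plates exposed to compound for 48 hours at five concentrations. TGI: concentration producing complete growth inhibition.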

Tested on: HOP-62 NSCLC
Assay: DTP human tumour cell line panel, 48 h

Row | Compound | TGI
1 | O=C(NCCCNCCCNC(=O)c1cc(-c2ccccc2)nc2ccccc12)c1cc(-c2ccccc2)nc2ccccc12 | 2.16 µM
2 | NC(Cc1ccccc1)C(=O)N[C@H]1c2ccsc2/C(=N/O)[C@H]1O (stereo partly specified) | > 100 µM

Tested on: HOP-92 NSCLC
Assay: DTP human tumour cell line panel, 48 h

Row | Compound | TGI
3 | CC(C)(C)c1cc(Br)c(O)c(CN(Cc2cc(C(C)(C)C)cc(Br)c2O)C2CCCCC2)c1 | 28.8 µM
4 | O=C(N/N=C/c1ccccc1)c1c(-c2cccnc2)cnc2ccccc12 | > 100 µM
5 | Cc1ccc(SCC(CF)OC(C)n2cnc3c(=O)[nH]c(N)nc32)cc1 (stereo unspecified) | > 100 µM
6 | COC(CNC(=O)C(C)NC(=O)CCc1ccccc1)OC (stereo unspecified) | > 100 µM
7 | COc1ccc(C(=C(Cl)c2ccccc2)c2ccc(OC)cc2)cc1 | > 100 µM
8 | O=C(NCCCNCCCNC(=O)c1cc(-c2ccccc2)nc2ccccc12)c1cc(-c2ccccc2)nc2ccccc12 | 4.17 µM
9 | NC(Cc1ccccc1)C(=O)N[C@H]1c2ccsc2/C(=N/O)[C@H]1O (stereo partly specified) | > 100 µM

Tested on: HS 578T breast
Assay: DTP human tumour cell line panel, 48 h

Row | Compound | TGI
10 | CC(C)(C)c1cc(Br)c(O)c(CN(Cc2cc(C(C)(C)C)cc(Br)c2O)C2CCCCC2)c1 | 28.4 µM
11 | O=Cc1ccc(OCc2cccc(COc3ccc(/C=N\Nc4ccc([N+](=O)[O-])cc4[N+](=O)[O-])cc3)n2)cc1 | > 100 µM
12 | Cc1ccc(SCC(CF)OC(C)n2cnc3c(=O)[nH]c(N)nc32)cc1 (stereo unspecified) | > 100 µM
13 | COC(CNC(=O)C(C)NC(=O)CCc1ccccc1)OC (stereo unspecified) | > 100 µM
14 | COc1ccc(C(=C(Cl)c2ccccc2)c2ccc(OC)cc2)cc1 | > 100 µM

Tested on: HT29 colon
Assay: DTP human tumour cell line panel, 48 h

Row | Compound | TGI
15 | CC(C)(C)c1cc(Br)c(O)c(CN(Cc2cc(C(C)(C)C)cc(Br)c2O)C2CCCCC2)c1 | 19.3 µM
16 | O=Cc1ccc(OCc2cccc(COc3ccc(/C=N\Nc4ccc([N+](=O)[O-])cc4[N+](=O)[O-])cc3)n2)cc1 | > 100 µM
17 | O=C(N/N=C/c1ccccc1)c1c(-c2cccnc2)cnc2ccccc12 | > 100 µM
18 | Cc1ccc(SCC(CF)OC(C)n2cnc3c(=O)[nH]c(N)nc32)cc1 (stereo unspecified) | > 100 µM
19 | COC(CNC(=O)C(C)NC(=O)CCc1ccccc1)OC (stereo unspecified) | > 100 µM
20 | COc1ccc(C(=C(Cl)c2ccccc2)c2ccc(OC)cc2)cc1 | > 100 µM
21 | NC(Cc1ccccc1)C(=O)N[C@H]1c2ccsc2/C(=N/O)[C@H]1O (stereo partly specified) | > 100 µM

Tested on: IGROV1 ovarian
Assay: DTP human tumour cell line panel, 48 h

Row | Compound | TGI
22 | CC(C)(C)c1cc(Br)c(O)c(CN(Cc2cc(C(C)(C)C)cc(Br)c2O)C2CCCCC2)c1 | 28.7 µM
23 | O=Cc1ccc(OCc2cccc(COc3ccc(/C=N\Nc4ccc([N+](=O)[O-])cc4[N+](=O)[O-])cc3)n2)cc1 | > 100 µM
24 | O=C(N/N=C/c1ccccc1)c1c(-c2cccnc2)cnc2ccccc12 | > 100 µM
25 | Cc1ccc(SCC(CF)OC(C)n2cnc3c(=O)[nH]c(N)nc32)cc1 (stereo unspecified) | > 100 µM
26 | COC(CNC(=O)C(C)NC(=O)CCc1ccccc1)OC (stereo unspecified) | > 100 µM
27 | COc1ccc(C(=C(Cl)c2ccccc2)c2ccc(OC)cc2)cc1 | > 100 µM
28 | O=C(NCCCNCCCNC(=O)c1cc(-c2ccccc2)nc2ccccc12)c1cc(-c2ccccc2)nc2ccccc12 | 3.19 µM
29 | NC(Cc1ccccc1)C(=O)N[C@H]1c2ccsc2/C(=N/O)[C@H]1O (stereo partly specified) | > 100 µM

Tested on: K-562 leukemia
Assay: DTP human tumour cell line panel, 48 h

Row | Compound | TGI
30 | CC(C)(C)c1cc(Br)c(O)c(CN(Cc2cc(C(C)(C)C)cc(Br)c2O)C2CCCCC2)c1 | 28.3 µM
31 | O=Cc1ccc(OCc2cccc(COc3ccc(/C=N\Nc4ccc([N+](=O)[O-])cc4[N+](=O)[O-])cc3)n2)cc1 | > 100 µM
32 | O=C(N/N=C/c1ccccc1)c1c(-c2cccnc2)cnc2ccccc12 | > 100 µM
33 | COC(CNC(=O)C(C)NC(=O)CCc1ccccc1)OC (stereo unspecified) | > 100 µM
34 | COc1ccc(C(=C(Cl)c2ccccc2)c2ccc(OC)cc2)cc1 | > 100 µM
35 | O=C(NCCCNCCCNC(=O)c1cc(-c2ccccc2)nc2ccccc12)c1cc(-c2ccccc2)nc2ccccc12 | 3.53 µM
36 | NC(Cc1ccccc1)C(=O)N[C@H]1c2ccsc2/C(=N/O)[C@H]1O (stereo partly specified) | > 100 µM

Tested on: KM12 colon
Assay: DTP human tumour cell line panel, 48 h

Row | Compound | TGI
37 | CC(C)(C)c1cc(Br)c(O)c(CN(Cc2cc(C(C)(C)C)cc(Br)c2O)C2CCCCC2)c1 | 29.4 µM
38 | O=Cc1ccc(OCc2cccc(COc3ccc(/C=N\Nc4ccc([N+](=O)[O-])cc4[N+](=O)[O-])cc3)n2)cc1 | > 100 µM
39 | O=C(N/N=C/c1ccccc1)c1c(-c2cccnc2)cnc2ccccc12 | > 100 µM
40 | Cc1ccc(SCC(CF)OC(C)n2cnc3c(=O)[nH]c(N)nc32)cc1 (stereo unspecified) | > 100 µM
41 | COC(CNC(=O)C(C)NC(=O)CCc1ccccc1)OC (stereo unspecified) | > 100 µM
42 | COc1ccc(C(=C(Cl)c2ccccc2)c2ccc(OC)cc2)cc1 | > 100 µM

Tested on: LOX IMVI melanoma
Assay: DTP human tumour cell line panel, 48 h

Row | Compound | TGI
43 | CC(C)(C)c1cc(Br)c(O)c(CN(Cc2cc(C(C)(C)C)cc(Br)c2O)C2CCCCC2)c1 | 29.8 µM
44 | O=Cc1ccc(OCc2cccc(COc3ccc(/C=N\Nc4ccc([N+](=O)[O-])cc4[N+](=O)[O-])cc3)n2)cc1 | > 100 µM
45 | Cc1ccc(SCC(CF)OC(C)n2cnc3c(=O)[nH]c(N)nc32)cc1 (stereo unspecified) | > 100 µM
46 | COc1ccc(C(=C(Cl)c2ccccc2)c2ccc(OC)cc2)cc1 | > 100 µM
47 | NC(Cc1ccccc1)C(=O)N[C@H]1c2ccsc2/C(=N/O)[C@H]1O (stereo partly specified) | > 100 µM

Tested on: M14 melanoma
Assay: DTP human tumour cell line panel, 48 h

Row | Compound | TGI
48 | CC(C)(C)c1cc(Br)c(O)c(CN(Cc2cc(C(C)(C)C)cc(Br)c2O)C2CCCCC2)c1 | 25.5 µM
49 | O=Cc1ccc(OCc2cccc(COc3ccc(/C=N\Nc4ccc([N+](=O)[O-])cc4[N+](=O)[O-])cc3)n2)cc1 | > 100 µM
50 | O=C(N/N=C/c1ccccc1)c1c(-c2cccnc2)cnc2ccccc12 | > 100 µM
51 | Cc1ccc(SCC(CF)OC(C)n2cnc3c(=O)[nH]c(N)nc32)cc1 (stereo unspecified) | > 100 µM
